# Test results from US8614223B2, “Pyrimidine hydroxy amide compounds as protein deacetylase inhibitors and methods of use thereof” (Acetylon Pharmaceuticals, Inc., priority 2010, dated 2013).
# Tests used:
# HDAC6 = HDAC6 (Homo sapiens (Human), UniProt Q9UBN7); conditions: read-out: HDAC6 IC50
# HDAC1 = HDAC1 (Homo sapiens (Human), UniProt Q13547); assay: HDAC enzyme assay, HDAC1; conditions: for HDAC1 fold over HDAC6 IC50 (selectivity for HDAC6): ratio HDAC1/HDAC6; for IC50: read-out: HDAC1 IC50
# Chain of HDAC1 (Q13547 whole entry): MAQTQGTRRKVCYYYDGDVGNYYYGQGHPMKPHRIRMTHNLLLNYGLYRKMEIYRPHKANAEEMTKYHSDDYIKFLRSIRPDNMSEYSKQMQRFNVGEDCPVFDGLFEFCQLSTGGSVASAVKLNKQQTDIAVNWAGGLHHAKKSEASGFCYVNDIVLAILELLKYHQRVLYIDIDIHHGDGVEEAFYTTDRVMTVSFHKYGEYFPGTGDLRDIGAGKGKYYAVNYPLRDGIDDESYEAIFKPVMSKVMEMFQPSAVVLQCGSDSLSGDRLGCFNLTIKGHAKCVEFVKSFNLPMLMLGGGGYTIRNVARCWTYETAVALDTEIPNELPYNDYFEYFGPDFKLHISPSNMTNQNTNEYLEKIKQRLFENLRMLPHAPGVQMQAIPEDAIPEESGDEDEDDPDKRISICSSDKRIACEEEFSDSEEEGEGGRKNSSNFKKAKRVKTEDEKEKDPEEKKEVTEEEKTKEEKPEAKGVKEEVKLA
# HDAC2 = HDAC2 (Homo sapiens (Human), UniProt Q92769); assay: HDAC enzyme assay, HDAC2; conditions: for HDAC2 fold over HDAC6 IC50 (selectivity for HDAC6): ratio HDAC2/HDAC6; for IC50: read-out: HDAC2 IC50
# Chain of HDAC2 (Q92769 whole entry): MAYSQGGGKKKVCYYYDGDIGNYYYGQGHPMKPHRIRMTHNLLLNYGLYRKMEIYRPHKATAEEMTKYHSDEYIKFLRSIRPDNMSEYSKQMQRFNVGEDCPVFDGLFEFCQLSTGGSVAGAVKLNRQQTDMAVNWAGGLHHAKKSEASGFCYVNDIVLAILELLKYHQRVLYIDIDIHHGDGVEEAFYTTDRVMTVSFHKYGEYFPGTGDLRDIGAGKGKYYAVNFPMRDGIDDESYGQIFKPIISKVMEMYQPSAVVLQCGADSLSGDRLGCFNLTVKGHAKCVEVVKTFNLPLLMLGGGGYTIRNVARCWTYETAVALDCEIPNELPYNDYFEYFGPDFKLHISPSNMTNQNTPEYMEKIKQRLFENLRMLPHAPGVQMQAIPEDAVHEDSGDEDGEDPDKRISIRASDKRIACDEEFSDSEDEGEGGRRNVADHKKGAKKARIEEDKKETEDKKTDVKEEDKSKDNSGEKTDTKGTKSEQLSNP
# HDAC3 = HDAC3 (Homo sapiens (Human), UniProt O15379); assay: HDAC enzyme assay, HDAC3; conditions: for HDAC3 fold over HDAC6 IC50 (selectivity for HDAC6): ratio HDAC3/HDAC6; for IC50: read-out: HDAC3 IC50
# Chain of HDAC3 (O15379 whole entry): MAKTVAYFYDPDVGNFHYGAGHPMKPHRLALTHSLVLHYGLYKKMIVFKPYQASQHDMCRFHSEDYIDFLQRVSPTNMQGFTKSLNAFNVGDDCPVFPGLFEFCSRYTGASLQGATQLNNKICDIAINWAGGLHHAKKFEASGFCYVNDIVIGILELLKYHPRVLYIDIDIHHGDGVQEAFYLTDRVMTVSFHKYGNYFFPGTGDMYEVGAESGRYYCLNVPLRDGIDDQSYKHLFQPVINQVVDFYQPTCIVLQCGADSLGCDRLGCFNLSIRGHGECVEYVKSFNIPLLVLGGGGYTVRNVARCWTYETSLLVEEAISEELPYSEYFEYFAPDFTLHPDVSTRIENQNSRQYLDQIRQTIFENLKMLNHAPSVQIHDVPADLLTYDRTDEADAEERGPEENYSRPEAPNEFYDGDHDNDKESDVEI
# Chain of HDAC3 (Q9Y618 395-489 partner): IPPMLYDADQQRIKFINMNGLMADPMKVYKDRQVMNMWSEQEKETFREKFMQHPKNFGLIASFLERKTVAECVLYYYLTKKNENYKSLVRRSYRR
# Chain of HDAC6 (Q9UBN7 whole entry): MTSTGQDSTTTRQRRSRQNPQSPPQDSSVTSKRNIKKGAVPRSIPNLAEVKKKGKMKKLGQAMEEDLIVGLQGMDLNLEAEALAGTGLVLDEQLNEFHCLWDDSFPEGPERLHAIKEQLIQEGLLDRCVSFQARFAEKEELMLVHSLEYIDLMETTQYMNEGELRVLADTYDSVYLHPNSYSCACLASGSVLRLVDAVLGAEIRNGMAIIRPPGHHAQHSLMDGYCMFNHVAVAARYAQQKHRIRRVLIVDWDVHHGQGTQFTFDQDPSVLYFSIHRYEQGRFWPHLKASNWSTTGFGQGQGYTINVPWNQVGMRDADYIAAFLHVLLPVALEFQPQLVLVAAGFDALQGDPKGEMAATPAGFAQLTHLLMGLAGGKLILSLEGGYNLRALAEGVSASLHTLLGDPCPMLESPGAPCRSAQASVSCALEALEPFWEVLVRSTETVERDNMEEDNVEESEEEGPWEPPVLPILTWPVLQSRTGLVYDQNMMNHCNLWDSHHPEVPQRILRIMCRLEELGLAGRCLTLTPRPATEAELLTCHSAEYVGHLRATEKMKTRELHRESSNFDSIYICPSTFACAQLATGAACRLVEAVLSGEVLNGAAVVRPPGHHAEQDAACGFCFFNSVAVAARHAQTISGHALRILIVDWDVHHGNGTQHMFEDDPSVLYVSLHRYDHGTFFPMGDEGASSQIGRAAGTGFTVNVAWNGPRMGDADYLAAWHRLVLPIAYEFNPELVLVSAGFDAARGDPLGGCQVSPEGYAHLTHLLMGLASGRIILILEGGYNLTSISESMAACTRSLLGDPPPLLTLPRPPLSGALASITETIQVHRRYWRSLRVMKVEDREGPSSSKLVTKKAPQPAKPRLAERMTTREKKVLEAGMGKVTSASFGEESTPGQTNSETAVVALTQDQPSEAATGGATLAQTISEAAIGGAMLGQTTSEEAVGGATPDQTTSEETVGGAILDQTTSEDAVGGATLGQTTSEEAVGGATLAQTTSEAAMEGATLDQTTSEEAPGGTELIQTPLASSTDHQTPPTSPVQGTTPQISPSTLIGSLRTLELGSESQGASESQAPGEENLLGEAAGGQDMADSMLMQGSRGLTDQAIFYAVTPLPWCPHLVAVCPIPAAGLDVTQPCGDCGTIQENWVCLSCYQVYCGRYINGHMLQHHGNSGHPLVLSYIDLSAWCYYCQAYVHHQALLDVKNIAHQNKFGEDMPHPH
Compound,IC50 (HDAC6) [nM],HDAC1 fold over HDAC6 IC50 (selectivity for HDAC6) (HDAC1),IC50 (HDAC1) [nM],HDAC2 fold over HDAC6 IC50 (selectivity for HDAC6) (HDAC2),IC50 (HDAC2) [nM],HDAC3 fold over HDAC6 IC50 (selectivity for HDAC6) (HDAC3),IC50 (HDAC3) [nM]
O=C(NO)c1cnc(NCCc2c[nH]c3ccccc23)nc1 [Compound 43],4,(22.8x),90,(30.3x),120,(27.1x),107
COc1ccccc1CNc1ncc(C(=O)NO)cn1 [Compound 45],4,(106.9x),377,(148.5x),523,(143.4x),506
O=C(NO)c1cnc(NCc2ccccc2OC(F)(F)F)nc1 [Compound 47],4,(55.8x),223,(86.7x),346,(75.1x),300
O=C(NO)c1cnc(NCc2c(Cl)cccc2Cl)nc1 [Compound 48],7,(48.8x),363,(80.8x),601,(53.9x),401
CC(C)(Nc1ncc(C(=O)NO)cn1)c1ccccc1 [Compound 50],4,(288.1x),1170,(374.6x),1520,(547.1x),2210
O=C(NO)c1cnc(NCc2c(CO)cccc2CO)nc1 [Compound 51],11,(41.2x),468,(55x),624,(33.6x),382
O=C(NO)c1cnc(NCc2ccc(F)c(Cl)c2)nc1 [Compound 53],2,(14.9x),24,(19.2x),30,(27.2x),43
Cc1cccc(C)c1CNc1ncc(C(=O)NO)cn1 [Compound 54],21,(64.4x),1370,(98.9x),2100,(73.7x),1570
O=C(NO)c1cnc(NCc2ccccc2-c2ccccc2)nc1 [Compound 55],8,(60.2x),460,(76.8x),587,(82.6x),631
O=C(NO)c1cnc(NCc2ccc(F)cc2C(F)(F)F)nc1 [Compound 57],6,(86x),526,(116.6x),713,(147.4x),901
O=C(NO)c1cnc(NC23CC4CC(CC(C4)C2)C3)nc1 [Compound 58],9,(60.8x),552,(77.2x),701,(119.5x),1080
O=C(NO)c1cnc(NCCc2ccccc2-c2ccccc2)nc1 [Compound 59],40,(15.3x),607,(20.5x),815,(22x),873
O=C(NO)c1cnc(NC(c2ccccc2)c2ccccc2)nc1 [Compound 60],2,(53.5x),129,(58.9x),142,(98.1x),237
O=C(NO)c1cnc(NCCc2c(Cl)cccc2Cl)nc1 [Compound 63],19,(77.6x),1440,(96.5x),1800,(93.7x),1750
CC(C)(Nc1ncc(C(=O)NO)cn1)c1ccc(F)cc1 [Compound 68],3,(254.8x),761,(362.4x),1080,(495.3x),1480
